Measured values: publication PMC8839746, “Discovery and Characterization of a Cryptic Secondary Binding Site in the Molecular Chaperone HSP70” (Molecules, 2022)
≈ marks a conversion by molar mass, not a printed value. Read-outs that look alike come from different tables or passages of the source. Each block holds one molecule with its values, some of them ahead of it.

Columns and labels:
HSP70 = molecular target: HSP70; design: method as in PMID 19256508; settings: cited from earlier work
HSC70-NBD = molecular target: T1, HSC70-NBD (Homo sapiens, UniProt P11142); experiment: SPR binding to wild-type HSC70-NBD
T1 construct: made in house
Method: (§1) The HSC70-NBD variants used in SPR were produced and purified as previously described. All surface plasmon resonance (SPR) experiments were carried out on a Biacore T100 enhanced to T200 sensitivity (GE Life Sciences, Amersham, UK), and amine coupling chemistry was used to immobilize the proteins on a research grade CM5 sensor chip. The running buffer was phosphate-buffered saline (10-mM NaHPO4-NaH2PO4, pH 7.4, 2.7-mM KCl and 137-mM NaCl), and the chip’s surface was activated for 10 min using a 1:1 mixture of 100-mM N-hydroxysuccinimide and 400-mM 1-ethyl-3-(3-dimethylaminopropyl)-carbodiimide. Wild-type HSC70-NBD and the S275W mutant proteins were injected for 10 min at a concentration of 2 μM in a 10-mM sodium acetate buffer, pH 5.0 with 100-μM ADP as protection for the active site lysines. Finally, the surface was blocked via an injection of 1 M ethanolamine, pH 8.5 for 7 min. The flow rate was maintained at 10 μL/min for all the above procedures. On average, ~12,000 response units (RU) of the wild-type and the mutant proteins were immobilized on the chip. Flow cell one was left unmodified as the reference surface. Following protein immobilization, the running buffer was changed to phosphate-buffered saline containing 0.05% Tween20 (v/v) and 5% DMSO.
(§2) To determine binding constants (KD) for the compounds, all liquid handling was carried out using an ECHO 550 acoustic liquid dispenser (Labcyte, Dublin, Ireland), and compounds were added to 384-well polypropylene V-bottomed plates (Greiner, Stonehouse, UK), which were used as sample plates for the SPR experiments. Fresh 100-mM DMSO stocks of each compound were prepared and used to generate eight-point concentration responses ranging from 25 μM to 1000 μM or from 6.25 μM to 500 μM. For adenosine, the concentration range was 50 μM–2000 μM from a 200-mM stock in DMSO, and for VER155008, a stock solution of 0.25 mM in DMSO was prepared with a concentration range of 0.0625–2.5 μM. The buffer mix was made compatible with the Biacore running buffer, and the experiments were performed at a flow rate of 30 μL/min, a sample injection time of 60 s and a dissociation time of 200 s. The CM5 surface was not regenerated between sample injections. Binding constants (KD) were calculated from the DMSO-corrected and background-normalized binding curves generated from the sensorgrams under equilibrium conditions using the 1:1 binding model in Biacore software version 2 (GE Life Sciences, Amersham, UK).

HSP72-NBD [1] = system: T2, HSP72-NBD; experiment: CPMG relaxation-edited ligand-observed 1H NMR binding and ATP competition; design: species or system human
T2 construct: GST (glutathione-S-transferase), PreScission site (N, cleaved yes); made in house; host or cells: BL21-AI E. coli
Method: (§3) To confirm the binding of compounds to HSP72-NBD, a series of CPMG and WaterLOGSY experiments were performed. Compounds were assayed at 200 μM in the presence or absence of 10-μM HSP72-NBD. […] of ATP were also included in the competition experiments. The total assay volume was 200 μL, and the experiments were performed in 3-mm NMR tubes. The buffer was 25-mM Tris, pH 7.5, 50-mM NaCl, 10% D2O and 100 μM of DTT in deionized water. NMR experiments were conducted at a ^1H frequency of 600 MHz using a Bruker Avance 600 spectrometer (Bruker, Bilerica, MA, USA) equipped with a 5-mm TCI Cryo-probe. All data were acquired and processed using Topspin (Bruker, Bilerica, MA, USA) and MNova (Mestrelab Research SL, Santiago de Compostela, Spain). The relaxation-edited 1H-NMR spectrum was acquired at 298 K using the CPMG sequence with a spin-lock time of 600 ms. The water signal was suppressed using pre-saturation during the relaxation delay (2 s) and by using the Watergate sequence subsequent to the CPMG sequence. For each spectrum, 64 transients were acquired.

HSP72-NBD [2] = system: T2, HSP72-NBD; experiment: waterLOGSY ligand-observed NMR binding; design: species or system human; settings: ligand 200 μM, HSP72-NBD 10 μM
Method: as §3

[3] = Kinetic solubility in pH 7.4 phosphate buffer by quantitative NMR; assay type: physicochemical; settings: phosphate-buffered saline with 5% DMSO, aqueous with cosolvent or surfactant or cyclodextrin, kinetic from dmso stock, NMR method
Method: Nine microliters of a 10-mM DMSO solution of 1 was pipetted into one well of a 384-deep well plate (Greiner, part-no. 781270). one hundred and seventy-one microliters of aqueous buffer (137-mM NaCl, 2.7-mM KCl and 10-mM phosphate buffer solution (pH 7.4)) were pipetted into the same well and mixed 3 times by pipette to give a 500-µM solution of 1 with 5% DMSO. The plate was centrifuged (1000 rpm for 1 min, Eppendorf 5810C) and then sealed and incubated at room temperature for 20 h without shaking. The plate was centrifuged (1000 rpm for 1 min, Eppendorf 5810R), and 165 µL of the supernatant was transferred to a 3-mm NMR tube (Bruker, Part No. Z112272) using a liquid handler SamplePro Tube SJ S (Bruker, Bilerica, MA, USA)). The concentration of 1 was measured by quantitative ^1H-NMR using a single external standard (200-µM caffeine (Sigma C1778, Merck Life Science UK, Gillingham, UK)) in PBS (pH 7.4) with 1% DMSO-d6). NMR data was collected on a Bruker Avance Neo 600 spectrometer equipped with a 5-mm TCI Cryo-probe. The ^1H spectrum was referenced to the internal deuterated solvent. The operating frequency for ^1H was 600 MHz. […] The quantitative ^1H-NMR spectrum was acquired using a Bruker standard 1D lc1pngppsf2 pulse sequence with 32 scans. […] The quantitative 1H-NMR data analysis was carried out in Mnova 14.1 (Mestrelab Research SL, Santiago de Compostela, Spain).

[4] = Aggregation check in LO-NMR experiments; assay type: physicochemical; settings: tested concentration 200 µM
Method: as §3

S275W HSC70-NBD [5] = molecular target: T3, S275W HSC70-NBD (Homo sapiens, UniProt P11142, S275W); experiment: SPR binding to S275W mutant HSC70-NBD
T3 construct: made in house
Method: as §1, §2

S275W HSC70-NBD [6] = molecular target: T3, S275W HSC70-NBD; design: method as in PMID 27708405; settings: S275W mutation; cited from earlier work
[7] = mean (±SD), n = 3 unless marked n = 2, read-out: HSC70-NBD SPR KD
[8] = n = 2 determinations unless marked single, read-out: HSC70-NBD S275W SPR KD

T3 sequence (P11142 2-386 S275W limits assumed): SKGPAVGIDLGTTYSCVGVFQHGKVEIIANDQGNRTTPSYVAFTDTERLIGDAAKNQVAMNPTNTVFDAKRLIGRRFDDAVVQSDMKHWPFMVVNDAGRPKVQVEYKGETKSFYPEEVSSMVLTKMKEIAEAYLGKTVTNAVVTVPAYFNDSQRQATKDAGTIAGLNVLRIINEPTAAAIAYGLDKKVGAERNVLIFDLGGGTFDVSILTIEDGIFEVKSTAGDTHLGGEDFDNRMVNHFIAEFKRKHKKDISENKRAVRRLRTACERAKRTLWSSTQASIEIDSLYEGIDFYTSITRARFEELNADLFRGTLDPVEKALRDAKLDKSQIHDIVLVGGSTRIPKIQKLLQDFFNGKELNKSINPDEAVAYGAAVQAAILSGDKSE
T1 sequence (P11142 2-386 limits assumed): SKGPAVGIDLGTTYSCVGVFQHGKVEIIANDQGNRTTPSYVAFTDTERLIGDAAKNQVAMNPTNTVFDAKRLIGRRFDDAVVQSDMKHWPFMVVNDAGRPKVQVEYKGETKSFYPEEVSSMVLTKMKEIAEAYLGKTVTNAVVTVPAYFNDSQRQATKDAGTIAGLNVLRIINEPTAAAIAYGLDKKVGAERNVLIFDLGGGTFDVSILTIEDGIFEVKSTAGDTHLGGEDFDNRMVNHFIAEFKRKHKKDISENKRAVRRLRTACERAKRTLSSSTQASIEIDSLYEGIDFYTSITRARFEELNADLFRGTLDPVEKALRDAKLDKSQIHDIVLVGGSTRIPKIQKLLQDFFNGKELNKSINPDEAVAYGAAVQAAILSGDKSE

SMILES: Nc1ncnc2c1ncn2[C@@H]1O[C@H](COP(=O)(O)OP(=O)(O)O)[C@@H](O)[C@H]1O [ADP]
Kd (HSP70): 0.5 µM

SMILES: NC(=O)N1CCN(c2nc(-c3ccc(C#CCN4CCOCC4)cc3)cs2)CC1 [Compound 3, 4-[4-[4-(3-Morpholinoprop-1-ynyl)phenyl]thiazol-2-yl]piperazine-1-carboxamide]
Kd (HSC70-NBD; SPR, WT HSC70-NBD, single determination, read-out: KD HSC70-NBD): 388 µM
Ligand Efficiency (HSC70-NBD; calculated for binding to WT HSC70-NBD): 0.16 kcal/mol per heavy atom
Kd (S275W HSC70-NBD [5]; SPR, single determination, read-out: KD S275W HSC70): 352 µM
Change in NMR signal intensity for 3, Peak a (HSP72-NBD [1]; 3 + HSP72-NBD): 41%
Change in NMR signal intensity for 3, Peak b (HSP72-NBD [1]; 3 + HSP72-NBD): 36%
Change in NMR signal intensity for 3, Peak c (HSP72-NBD [1]; 3 + HSP72-NBD): 31%
Change in NMR signal intensity for 3, Peak a (HSP72-NBD [1]; 3 + HSP72-NBD + ATP): 5%
Change in NMR signal intensity for 3, Peak b (HSP72-NBD [1]; 3 + HSP72-NBD + ATP): 22%
Change in NMR signal intensity for 3, Peak c (HSP72-NBD [1]; 3 + HSP72-NBD + ATP): 7%

SMILES: CC(C)c1csc(CCNC(=O)c2cccc(-c3cncc(O)n3)c2)n1 [Compound 4]
Kd (HSC70-NBD; [7]): 406 µM
Ligand Efficiency (HSC70-NBD; vHTS hits, HSC70-NBD): 0.18 kcal/mol per heavy atom
Kd (S275W HSC70-NBD [5]; [8]): 385 µM

SMILES: CNc1nc(C)cc(-c2cccc(C(=O)NCCc3ccc(C)o3)c2)n1 [Compound 7]
Kd (HSC70-NBD; [7]): 134 µM
Ligand Efficiency (HSC70-NBD; vHTS hits, HSC70-NBD): 0.21 kcal/mol per heavy atom
Kd (S275W HSC70-NBD [5]; [8]): 159 µM

SMILES: COc1cccc(-c2cc(CNC(=O)c3c(C)oc4c3C(=O)CCC4)on2)c1 [Compound 8]
Kd (HSC70-NBD; [7]): 99 µM
Ligand Efficiency (HSC70-NBD; vHTS hits, HSC70-NBD): 0.2 kcal/mol per heavy atom
Kd (S275W HSC70-NBD [5]; [8]): 86 µM

SMILES: N#Cc1ccc(COC[C@H]2O[C@@H](n3c(NCc4ccc(Cl)c(Cl)c4)nc4c(N)ncnc43)[C@H](O)[C@@H]2O)cc1 [VER-155008]
Kd (HSP70): 0.5 µM

SMILES: Nc1ncnc2c1ncn2[C@@H]1O[C@H](CO)[C@@H](O)[C@H]1O [adenosine]
Binding of adenosine to S275W mutant by SPR (S275W HSC70-NBD [6]): abolished

Further lines, with some results ahead:

SPR binding behaviour (Langmuir isotherm) (HSC70-NBD; concentration-response SPR, HSC70-NBD): non-saturating behavior
Reduction in 1H NMR peak intensity relative to 1 alone, Peak a (HSP72-NBD [1]; 1 (200 μM) + HSP72-NBD (10 μM), thiazole C5 proton): 58%
Reduction in 1H NMR peak intensity relative to 1 alone, Peak b (HSP72-NBD [1]; 1 + HSP72-NBD): 7%
Reduction in 1H NMR peak intensity relative to 1 alone, Peak c (HSP72-NBD [1]; 1 + HSP72-NBD): 14%
Reduction in 1H NMR peak intensity relative to 1 alone, Peak d (HSP72-NBD [1]; 1 + HSP72-NBD): 13%
Reduction in 1H NMR peak intensity relative to 1 alone, Peak a (HSP72-NBD [1]; 1 + HSP72-NBD + ATP): 8%
Reduction in 1H NMR peak intensity relative to 1 alone, Peak b (HSP72-NBD [1]; 1 + HSP72-NBD + ATP): 12%
Reduction in 1H NMR peak intensity relative to 1 alone, Peak c (HSP72-NBD [1]; 1 + HSP72-NBD + ATP): 2%
Reduction in 1H NMR peak intensity relative to 1 alone, Peak d (HSP72-NBD [1]; 1 + HSP72-NBD + ATP): 2%
solubility kinetic at 20 h [3]: 291 µM (≈ 83.9 µg/mL)
Aggregation in LO-NMR experiments [4]: did not show aggregation
melting point: 131 °C (dec.)
SMILES: NC(=O)N1CCN(c2nc(-c3ccccc3)cs2)CC1 [Compound 1, 4-(4-Phenylthiazol-2-yl)piperazine-1-carboxamide]
waterLOGSY NOE sign inversion on addition of HSP72-NBD (HSP72-NBD [2]): binding to the protein

Kd (HSC70-NBD; [7]): 295 µM
Ligand Efficiency (HSC70-NBD; vHTS hits, HSC70-NBD): 0.19 kcal/mol per heavy atom
Kd (S275W HSC70-NBD [5]; [8]): 176 µM
SMILES: CC(C)(O)C#Cc1cccc(C(=O)NCc2ccc(-n3cncn3)cc2)c1 [Compound 5]

Kd (HSC70-NBD; [7]): 13 µM
Ligand Efficiency (HSC70-NBD; vHTS hits, HSC70-NBD): 0.24 kcal/mol per heavy atom
Kd (S275W HSC70-NBD [5]; [8]): 12 µM
SMILES: c1ccc(-c2ccc(Cn3nnnc3N3CCCC(c4ncc[nH]4)C3)cc2)cc1 (stereo not shown) [Compound 6]
